According to ChEMBL document CHEMBL5338725, “New Glucosamine-Based TLR4 Agonists: Design, Synthesis, Mechanism of Action, and In Vivo Activity as Vaccine Adjuvants” (J Med Chem, 2023):
One block for each compound: values may come before it. Active and inactive are the calls of the source. No cut-off for these calls is given here.

Experiments:
HEK-Blue hTLR4 = assay: Agonist activity at human TLR4 in HEK-Blue hTLR4 cells at 100 ng/ml incubated for 18 hrs by SEAP reporter gene based Quanti-blue assay; type: cell-based; conditions: filed as agonist
Mus musculus [1] = assay: Immuno-adjuvant activity in OVA immunized C57BL/6J mouse model assessed as increase in anti-OVA IgG2b antibody at 10 ug, sc administered on day 0 and as booster dose on day 21 and measured after 42 days by ELISA; type: functional, organism-based; conditions: dose 10.0 µg, time 42.0 day
Mus musculus [2] = assay: Immuno-adjuvant activity in OVA immunized C57BL/6J mouse model assessed as increase in anti-OVA IgG2c antibody at 10 ug, sc administered on day 0 and as booster dose on day 21 and measured after 42 days by ELISA; type: functional, organism-based; conditions: dose 10.0 µg, time 42.0 day
THP1-Xblue [3] = assay: Activation of NF-KappaB/AP-1 signalling pathway in PMA-differentiated human THP-1 X-blue cells assessed as induction of SEAP release at 0.1 to 25 uM incubated for 18 hrs by QUANTI-Blue assay; type: cell-based; conditions: dose 0.1-25 µM
[4] = target: Toll-like receptor 4 (Homo sapiens) (UniProt O00206); assay: Agonist activity at human TLR4 in HEK-Blue hTLR4 cells at 0.1 to 25 uM incubated for 18 hrs by SEAP reporter gene based Quanti-blue assay; type: cell-based; conditions: filed as agonist, dose 0.1-25 µM
Toll-like receptor 4 (Homo sapiens), sequence (O00206 whole entry): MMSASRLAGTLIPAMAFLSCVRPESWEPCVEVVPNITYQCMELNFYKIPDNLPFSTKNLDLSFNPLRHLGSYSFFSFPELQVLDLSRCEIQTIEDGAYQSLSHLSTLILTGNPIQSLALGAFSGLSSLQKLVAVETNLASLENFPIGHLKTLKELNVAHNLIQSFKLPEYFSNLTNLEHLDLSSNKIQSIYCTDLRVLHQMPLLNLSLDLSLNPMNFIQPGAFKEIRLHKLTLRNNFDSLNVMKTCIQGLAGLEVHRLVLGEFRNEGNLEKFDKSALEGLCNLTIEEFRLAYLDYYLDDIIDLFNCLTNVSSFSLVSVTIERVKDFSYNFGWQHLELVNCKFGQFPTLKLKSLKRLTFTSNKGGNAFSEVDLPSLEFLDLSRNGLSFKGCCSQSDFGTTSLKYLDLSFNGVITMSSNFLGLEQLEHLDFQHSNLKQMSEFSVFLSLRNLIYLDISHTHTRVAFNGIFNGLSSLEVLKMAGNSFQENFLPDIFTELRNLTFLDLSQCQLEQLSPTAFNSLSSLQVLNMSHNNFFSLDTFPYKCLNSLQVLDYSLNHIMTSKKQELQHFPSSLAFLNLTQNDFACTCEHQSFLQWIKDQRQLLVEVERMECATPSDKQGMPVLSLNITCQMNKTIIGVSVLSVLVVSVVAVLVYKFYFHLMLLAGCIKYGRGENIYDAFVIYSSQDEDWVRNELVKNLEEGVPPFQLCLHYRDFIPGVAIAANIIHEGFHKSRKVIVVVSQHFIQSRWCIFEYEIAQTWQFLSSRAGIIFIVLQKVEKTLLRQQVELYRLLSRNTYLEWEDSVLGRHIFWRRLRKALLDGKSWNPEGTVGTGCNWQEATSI

[5] = target: Toll-like receptor 4 (Homo sapiens) (UniProt O00206); assay: Activation of TLR4 in PMA-differentiated human THP1-Xblue cells assessed as induction of TNFalpha release at 25 uM incubated for 6 hrs by ELISA method; type: cell-based; conditions: filed as activator
[6] = target: Toll-like receptor 4 (Homo sapiens) (UniProt O00206); assay: Activation of TLR4 in PMA-differentiated human THP1-Xblue cells assessed as induction of IL-1beta release incubated for 6 hrs by ELISA method; type: cell-based; conditions: filed as activator, dose 0.1-25 µM
[7] = target: Toll-like receptor 4 (Homo sapiens) (UniProt O00206); assay: Activation of TLR4 in PMA-differentiated human THP1-Xblue cells assessed as induction of IL-1beta release at 25 uM by incubated for 6 hrs ELISA method; type: cell-based; conditions: filed as activator
PBMC = assay: Cytotoxicity against human PBMC cells assessed as reduction in cell viability at 0.1 to 25 uM incubated for 18 hrs by MTT assay; type: toxicity, cell-based; conditions: dose 0.1-25 µM
[8] = target: Toll-like receptor 4 (Homo sapiens) (UniProt O00206); assay: Activation of TLR4 in PMA-differentiated human THP1-Xblue cells assessed as induction of IL-6 secretion at 0.1 to 25 uM by incubated for 6 hrs ELISA method; type: cell-based; conditions: dose 0.1-25 µM
[9] = target: Toll-like receptor 4 (Homo sapiens) (UniProt O00206); assay: Agonist activity at TLR4 in human PBMC assessed as induction of TNF production incubated for 6 hrs by ELISA method; type: cell-based; conditions: filed as agonist, dose 10-25 µM
[10] = target: Toll-like receptor 4 (Homo sapiens) (UniProt O00206); assay: Agonist activity at TLR4 in human PBMC assessed as induction of IL-1beta production incubated for 6 hrs by ELISA method; type: cell-based; conditions: filed as agonist, dose 10-25 µM
THP1-Xblue [11] = assay: Activation of NF-kappaB pathway in PMA-differentiated human THP1-Xblue cells assessed p65 translocation from cytosol to nucleus at 25 uM incubated for 4 hrs by immunofluorescence analysis; type: cell-based
THP1-Xblue [12] = assay: Activation of […] in PMA-differentiated human THP1-Xblue cells assessed as p-IRF3 translocation from cytosol to nucleus at 25 uM measured after 2 to 4 hrs by immunofluorescence analysis; type: cell-based; conditions: time 2-4 hrs
[13] = target: MAP kinase p38 (Homo sapiens) (UniProt O15264+Q15759+Q16539+P53778); assay: Activation of p38 MAPK phosphorylation in PMA-differentiated human THP1-Xblue cells at 25 uM incubated for 1.5 to 2.5 hrs by Western blot analysis; type: cell-based; conditions: filed as activator, time 1.5-2.5 hrs
[14] = target: NACHT, LRR and PYD domains-containing protein 3 (Homo sapiens) (UniProt Q96P20); assay: Activation of NLRP3 inflammasome in PMA-differentiated human THP1-Xblue cells assessed as IL-1beta production at 25 uM preincubated for 1 hr with MCC950 followed by compound addition and measured after 6 hrs by ELISA method; type: cell-based
NACHT, LRR and PYD domains-containing protein 3 (Homo sapiens), sequence (Q96P20 whole entry, the tested form may be a part): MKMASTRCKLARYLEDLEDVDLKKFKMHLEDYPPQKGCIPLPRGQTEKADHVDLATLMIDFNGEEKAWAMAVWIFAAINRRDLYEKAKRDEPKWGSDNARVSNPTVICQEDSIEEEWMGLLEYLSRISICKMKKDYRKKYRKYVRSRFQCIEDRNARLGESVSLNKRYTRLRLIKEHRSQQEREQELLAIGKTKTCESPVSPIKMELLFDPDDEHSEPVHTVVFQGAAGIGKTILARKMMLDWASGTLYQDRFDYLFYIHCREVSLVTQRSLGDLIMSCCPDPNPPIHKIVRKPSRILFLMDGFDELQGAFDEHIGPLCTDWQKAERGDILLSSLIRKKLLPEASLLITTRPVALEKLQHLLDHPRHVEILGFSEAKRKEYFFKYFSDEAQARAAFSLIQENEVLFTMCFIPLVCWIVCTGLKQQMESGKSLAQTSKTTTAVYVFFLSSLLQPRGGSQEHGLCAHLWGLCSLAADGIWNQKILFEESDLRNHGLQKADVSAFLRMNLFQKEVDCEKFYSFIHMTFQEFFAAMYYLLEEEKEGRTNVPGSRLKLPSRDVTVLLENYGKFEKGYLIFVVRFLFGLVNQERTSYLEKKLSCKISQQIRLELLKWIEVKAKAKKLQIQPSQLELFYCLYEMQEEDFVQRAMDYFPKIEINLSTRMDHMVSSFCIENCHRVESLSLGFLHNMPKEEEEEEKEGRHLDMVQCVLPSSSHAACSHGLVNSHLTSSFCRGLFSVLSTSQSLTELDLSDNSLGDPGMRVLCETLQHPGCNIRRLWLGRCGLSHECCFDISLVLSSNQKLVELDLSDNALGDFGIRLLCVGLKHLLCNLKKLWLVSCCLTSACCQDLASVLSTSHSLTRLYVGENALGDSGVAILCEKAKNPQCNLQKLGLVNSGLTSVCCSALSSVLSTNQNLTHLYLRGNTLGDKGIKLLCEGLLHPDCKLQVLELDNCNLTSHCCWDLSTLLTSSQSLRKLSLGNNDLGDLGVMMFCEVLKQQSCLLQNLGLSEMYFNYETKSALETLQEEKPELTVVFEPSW

RAW-Blue = assay: Activation of NF-kappaB/AP-1 transcriptional activity in mouse RAW-Blue cells at 0.1 uM incubated for 18 hrs by quanti-blue/SEAP-based spectrophotometry analysis; type: cell-based; conditions: filed as activator
THP1-Xblue [15] = assay: Activation of NF-kappaB/AP-1 transcriptional activity in human THP1-Xblue cells at 10 uM incubated for 18 hrs by quanti-blue/SEAP-based spectrophotometry analysis; type: cell-based; conditions: filed as activator
Mus musculus [16] = assay: Immuno-adjuvant activity in OVA immunized C57BL/6J mouse model assessed as increase in anti-OVA IgG antibody at 10 ug, sc administered on day 0 and as booster dose on day 21 and measured on day 42 by ELISA; type: functional, organism-based; conditions: dose 10.0 µg
Mus musculus [17] = assay: Immuno-adjuvant activity in OVA immunized C57BL/6J mouse model assessed as increase in anti-OVA IgG1 antibody at 10 ug, sc administered on day 0 and as booster dose on day 21 and measured after 42 days by ELISA; type: functional, organism-based; conditions: dose 10.0 µg, time 42.0 day
Mus musculus [18] = assay: Immuno-adjuvant activity in OVA immunized C57BL/6J mouse model assessed as anti-OVA […] antibody production at 10 ug, sc administered on day 0 and as booster dose on day 21 and measured after 42 days by ELISA; type: functional, organism-based; conditions: dose 10.0 µg, time 42.0 day
[19] = Cytotoxicity against PMA-differentiated human THP1-Xblue cells assessed as reduction in cell viability at 0.1 to 25 uM incubated for 18 hrs by MTT assay; type: toxicity, cell-based; conditions: dose 0.1-25 µM

SMILES: CCCCCCCCCCCCCC(=O)O[C@H](CCCCCCCCCCC)CC(=O)N[C@H]1[C@H](OC[C@H]2O[C@H](O)[C@H](NC(=O)C[C@H](O)CCCCCCCCCCC)[C@@H](OC(=O)C[C@H](O)CCCCCCCCCCC)[C@@H]2O)O[C@H](CO)[C@@H](OP(=O)(O)O)[C@@H]1OC(=O)C[C@@H](CCCCCCCCCCC)OC(=O)CCCCCCCCCCCCC
Activity (HEK-Blue hTLR4): Active
Activity (Mus musculus [1]): inactive
Activity (Mus musculus [2]): Active

SMILES: CCCCCCCCCCCC(=O)N[C@H]1[C@@H](OC(=O)CCCCCCCCCCC)O[C@H](CO)[C@@H](OP(=O)(O)O)[C@@H]1OC(=O)CCCCCCCCCCC
Activity (THP1-Xblue [3]): inactive

Activity [4]: Active
Activity [5]: Active
Activity [6]: Dose-Dependent Effect
Activity [7]: Active
Activity [8]: inactive
Activity [9]: Dose-Dependent Effect
Activity [10]: Dose-Dependent Effect
Activity [13]: Active
Activity [14]: inactive
SMILES: CCCCCCCCCCCC(=O)N[C@H]1[C@H](OC(=O)CCCCCCCCCCC)O[C@H](CO)[C@@H](OP(=O)([O-])[O-])[C@@H]1OC(=O)CCCCCCCCCCC.[Na+].[Na+]
Activity (PBMC): Non-Toxic
Activity (THP1-Xblue [11]): inactive
Activity (THP1-Xblue [12]): inactive
Activity (RAW-Blue): Active
Activity (THP1-Xblue [15]): Active
Activity (Mus musculus [16]): Active
Activity (Mus musculus [17]): Active
Activity (Mus musculus [1]): inactive
Activity (Mus musculus [18]): inactive

Activity [4]: Active
SMILES: CCCCCCCCCCCC(=O)N[C@H]1[C@H](OC(=O)CCCCCCCCC)O[C@H](CO)[C@@H](OP(=O)([O-])[O-])[C@@H]1OC(=O)CCCCCCCCC.[Na+].[Na+]
Activity [19]: Non-Toxic

SMILES: CCCCCCCCCCCC(=O)N[C@H]1[C@@H](OP(=O)(O)O)O[C@H](CO)[C@@H](OC(=O)CCCCCCCCCCC)[C@@H]1OC(=O)CCCCCCCCCCC
Activity (Mus musculus [17]): inactive
Activity (Mus musculus [1]): inactive
Activity (Mus musculus [2]): inactive
Activity (Mus musculus [18]): inactive

Activity [4]: Active
SMILES: CCCCCCCCCCCCCC(=O)N[C@H]1[C@H](OC(=O)CCCCCCCCCCCCC)O[C@H](CO)[C@@H](OP(=O)([O-])[O-])[C@@H]1OC(=O)CCCCCCCCCCCCC.[Na+].[Na+]
Activity [19]: Non-Toxic

Activity [4]: Active
Activity [5]: Active
Activity [6]: Dose-Dependent Effect
Activity [8]: inactive
Activity [9]: Dose-Dependent Effect
Activity [10]: Dose-Dependent Effect
SMILES: CCCCCCCCCCCCCC(=O)O[C@@H]1O[C@H](CO)[C@@H](OP(=O)([O-])[O-])[C@H](OC(=O)CCCCCCCCCCCCC)[C@H]1NC(=O)CCCCCCCCCCC.[Na+].[Na+]
Activity (PBMC): Non-Toxic
Activity [19]: Non-Toxic
